Measurements published in patent US8178490B2, “Polybasic bacterial efflux pump inhibitors and therapeutic uses thereof” (priority 2007, dated 2012).

Assay: Rat serum pharmacokinetics after 1.5-hour IV infusion
Type: in vivo
Conditions: two-compartment model; for Cmax / clearance: 1.5-hour IV infusion in 0.9% saline, dose (mg/kg) differs per compound; for clearance: read-out: Clearance (free drug clearance) (converted); for pharmacokinetic profile: […] IV infusion in 0.9% saline, total dose 2, 5, 10 or 20 mg/kg
Procedure: In the experiment depicted in Table 7, above, rat serum pharmacokinetics of selected inhibitor compounds was evaluated after 1.5-hour IV infusion of 1.5 ml solution of corresponding efflux pump inhibitor in 0.9% saline. Depending on the concentration used the total infused dose was 2, 5, 10 or 20 mg/kg. A two-compartment model was used to fit the data and calculate PK parameters.

Cmax [ng/mL] | clearance [mL/min/kg] | SMILES | pharmacokinetic profile
1260 | 70.8 | CC(C)Oc1ccc(CNC(=O)[C@H](CCc2ccccc2)NC(=O)[C@@H](N)CC(=O)N(CCN)CCN)cc1 [Compound 237] | –
22900 | 31.3 | Cl.Cl.Cl.Cl.NCCN(CCN)C(=O)C[C@H](N)C(=O)N[C@H](C(=O)Nc1cnc2ccccc2c1)C(O)c1ccc(C(F)(F)F)cc1 (stereo partly drawn) [Compound 169, 3-[(1S)-2-[bis(2-azaniumylethyl)carbamoyl]-1-{[(1S)-1-carbamoyl-2-hydroxy-2-[4-(trifluoromethyl)phenyl]ethyl]carbamoyl}ethan-1-aminium]quinolin-1-ium tetrachloride] | –
2980 | 51.7 | Cc1cc(CNC(=O)[C@H](CCc2ccccc2)NC(=O)[C@@H](N)CC(=O)N(CCN)CCN)c(C(F)(F)F)o1 [Compound 67] | –
7200 | 26 | Cl.Cl.Cl.Cl.NCCN(CCN)C(=O)C[C@H](N)C(=O)N[C@H](CCc1ccccc1)C(=O)Nc1cnc2ccccc2c1 [Compound 48, 3-[(1S)-2-[bis(2-azaniumylethyl)carbamoyl]-1-{[(1R)-1-carbamoyl-3-phenylpropyl]carbamoyl}ethan-1-aminium]quinolin-1-ium tetrachloride] | particularly attractive pharmacokinetic profiles
8100 | 45.3 | Cl.Cl.Cl.Cl.N[C@@H](CCC(=O)N1C[C@H](N)[C@@H](N)C1)C(=O)N[C@H](CCc1ccccc1)C(=O)Nc1cnc2ccccc2c1 [Compound 41, 3-[(1S)-1-{[(1R)-1-carbamoyl-3-phenylpropyl]carbamoyl}-4-[(3S,4S)-3,4-diazaniumylpyrrolidin-1-yl]-4-oxobutan-1-aminium]quinolin-1-ium tetrachloride] | –
340 | 78.5 | CCCc1ccccc1NC(=O)[C@H](CCc1ccccc1)NC(=O)[C@@H](N)CC(=O)N(CCN)CCN [Compound 271] | –
1220 | 103 | NCCN(CCN)C(=O)C[C@H](N)C(=O)N[C@@H](CCc1ccccc1)C(=O)Nc1cccc(C(F)(F)F)c1 [Compound 90] | –
11000 | 64.3 | NCCN(CCN)C(=O)C[C@H](N)C(=O)N[C@@H](CCc1ccccc1)C(=O)Nc1cc(Cl)c(Cl)cc1Cl [Compound 87] | –
2440 | 177 | CCOc1c(F)cc(NC(=O)[C@H](CCc2ccccc2)NC(=O)[C@@H](N)CC(=O)N(CCN)CCN)cc1F.Cl.Cl.Cl [Compound 352, (1S)-2-[bis(2-azaniumylethyl)carbamoyl]-1-{[(1S)-1-[(4-ethoxy-3,5-difluorophenyl)carbamoyl]-3-phenylpropyl]carbamoyl}ethan-1-aminium trichloride] | –
660 | 145 | NCCN(CCN)C(=O)C[C@H](N)C(=O)NCC(=O)N(Cc1ccc(C(F)(F)F)cc1)c1cnc2ccccc2c1 [Compound 357, 3-[(1S)-2-[bis(2-azaniumylethyl)carbamoyl]-1-{[({[4-(trifluoromethyl)phenyl]methyl}carbamoyl)methyl]carbamoyl}ethan-1-aminium]quinolin-1-ium tetrachloride] | –
5050 | 43 | NCCN(CCN)C(=O)C[C@H](N)C(=O)N[C@@H](CCc1ccccc1)C(=O)NCc1ccc(F)c(C(F)(F)F)c1 [Compound 102] | –
2200 | 328 | Cl.Cl.Cl.Cl.NCCN(CCN)C(=O)C[C@H](N)C(=O)NCC(=O)N[C@@H](CCc1ccccc1)C(=O)Nc1cnc2ccccc2c1 [Compound 348, 3-[(1S)-2-[bis(2-azaniumylethyl)carbamoyl]-1-[({[(1S)-1-carbamoyl-3-phenylpropyl]carbamoyl}methyl)carbamoyl]ethan-1-aminium]quinolin-1-ium tetrachloride] | –
1270 | 88.3 | NCCN(CCN)C(=O)C[C@H](N)C(=O)N[C@@H](CCc1ccccc1)C(=O)NCc1ccc(OC2CCOCC2)cc1 [Compound 133] | –
8100 | 28.3 | Cl.Cl.Cl.Cl.NCCN(CCN)C(=O)CC[C@H](N)C(=O)N[C@H](CCc1ccccc1)C(=O)Nc1cnc2ccccc2c1 [Compound 47, 3-[(1S)-3-[bis(2-azaniumylethyl)carbamoyl]-1-{[(1R)-1-carbamoyl-3-phenylpropyl]carbamoyl}propan-1-aminium]quinolin-1-ium tetrachloride] | –
1890 | 91.2 | NCCN(CCN)C(=O)C[C@H](N)C(=O)N[C@@H](CCc1ccccc1)C(=O)NCc1ccc(Oc2ccccn2)cc1 [Compound 110] | –
4000 | 13.5 | Cl.Cl.Cl.Cl.NCCN(CCN)CCC[C@H](N)C(=O)N[C@H](CCc1ccccc1)C(=O)Nc1cnc2ccccc2c1 [Compound 46, 3-[(1S)-4-[bis(2-azaniumylethyl)amino]-1-{[(1R)-1-carbamoyl-3-phenylpropyl]carbamoyl}butan-1-aminium]quinolin-1-ium tetrachloride] | particularly attractive pharmacokinetic profiles
2500 | 28 | Cc1cc(C)c(NC(=O)[C@H](CCc2ccccc2)NC(=O)[C@@H](N)CC(=O)N(CCN)CCN)c(C)c1 [Compound 88] | –

Cmax [ng/mL] | clearance [mL/min/kg] | SMILES | pharmacokinetic profile
2390 | 70.2 | NCCN(CCN)C(=O)C[C@H](N)C(=O)N[C@@H](CCc1ccccc1)C(=O)Nc1ccc2cnccc2c1 [Compound 49] | –
2680 | 24.7 | NCCN(CCN)C(=O)C[C@@H](N)C(=O)N[C@H](CCc1ccccc1)C(=O)Nc1cnc2ccccc2c1 [Compound 44, 3-[(1R)-2-[bis(2-azaniumylethyl)carbamoyl]-1-{[(1R)-1-carbamoyl-3-phenylpropyl]carbamoyl}ethan-1-aminium]quinolin-1-ium tetrachloride] | –
1750 | 30.2 | NCCN(CCN)C(=O)C[C@H](N)C(=O)N[C@@H](CCc1ccccc1)C(=O)NCc1ccc(OC(F)(F)F)cc1 [Compound 95] | –
1590 | 66.2 | NCCN(CCN)C(=O)C[C@H](N)C(=O)N[C@@H](CCc1ccccc1)C(=O)NCc1c(Cl)cccc1Cl [Compound 224] | –
21900 | 30 | Cl.Cl.Cl.Cl.NCCN(CCN)C(=O)CC[C@H](N)C(=O)N[C@H](Cc1ccc(OC(F)(F)F)cc1)C(=O)Nc1cnc2ccccc2c1 [Compound 31, 3-[(1S)-3-[bis(2-azaniumylethyl)carbamoyl]-1-{[(1R)-1-carbamoyl-2-[4-(trifluoromethoxy)phenyl]ethyl]carbamoyl}propan-1-aminium]quinolin-1-ium tetrachloride] | –
5030 | 48.2 | Cl.Cl.Cl.Cl.NCCN(CCN)C(=O)C[C@H](N)C(=O)N[C@H](Cc1ccc(C(F)(F)F)cc1)C(=O)Nc1cnc2ccccc2c1 [Compound 359, 3-[(1S)-2-[bis(2-azaniumylethyl)carbamoyl]-1-{[(1R)-1-carbamoyl-2-[4-(trifluoromethyl)phenyl]ethyl]carbamoyl}ethan-1-aminium]quinolin-1-ium tetrachloride] | –
3980 | 105 | Cl.Cl.Cl.Cl.N[C@@H](CCC(=O)N1C[C@H](N)[C@@H](N)C1)C(=O)N[C@H](Cc1ccc(C(F)(F)F)cc1)C(=O)Nc1cnc2ccccc2c1 [Compound 33, 3-[(1S)-1-{[(1R)-1-carbamoyl-2-[4-(trifluoromethyl)phenyl]ethyl]carbamoyl}-4-[(3S,4S)-3,4-diazaniumylpyrrolidin-1-yl]-4-oxobutan-1-aminium]quinolin-1-ium tetrachloride] | –
3850 | 51.8 | Cc1ccc(C)c(CNC(=O)[C@H](CCc2ccccc2)NC(=O)[C@@H](N)CC(=O)N(CCN)CCN)c1 [Compound 96] | –
1540 | 92.2 | CC(C)Oc1ccc(NC(=O)[C@H](CCc2ccccc2)NC(=O)[C@@H](N)CC(=O)N(CCN)CCN)cc1 [Compound 214] | –
4920 | 118 | COc1cc(OC(F)(F)F)ccc1CNC(=O)[C@H](CCc1ccccc1)NC(=O)[C@@H](N)CC(=O)N(CCN)CCN [Compound 233] | –
2670 | 98.2 | CC(C)c1ccc(NC(=O)[C@H](CCc2ccccc2)NC(=O)[C@@H](N)CC(=O)N(CCN)CCN)cc1 [Compound 91] | –
13900 | 50 | CCOc1ccc(NC(=O)[C@H](CCc2ccccc2)NC(=O)[C@@H](N)CC(=O)N(CCN)CCN)cc1 [Compound 85] | –
2250 | 217 | NCCN(CCN)C(=O)C[C@H](N)C(=O)N[C@@H](CCc1ccccc1)C(=O)Nc1cnc2ccccc2c1 [Compound 2, 3-[(1S)-2-[bis(2-azaniumylethyl)carbamoyl]-1-{[(1S)-1-carbamoyl-3-phenylpropyl]carbamoyl}ethan-1-aminium]quinolin-1-ium tetrachloride] | particularly attractive pharmacokinetic profiles
2960 | 63.2 | Cc1ccc(NC(=O)[C@H](CCc2ccccc2)NC(=O)[C@@H](N)CC(=O)N(CCN)CCN)cc1 [Compound 77] | –
690 | 93.3 | CC(C)Oc1ccc(NC(=O)[C@H](CCc2ccccc2)NC(=O)[C@@H](N)CC(=O)N(CCN)CCN)c(F)c1 [Compound 215] | –
7610 | 56 | Cl.Cl.Cl.Cl.N[C@@H]1CN(C(=O)CC[C@H](N)C(=O)N[C@H](Cc2ccc(C(F)(F)F)cc2)C(=O)Nc2cnc3ccccc3c2)C[C@@H]1N [Compound 30, 3-[(1S)-1-{[(1R)-1-carbamoyl-2-[4-(trifluoromethyl)phenyl]ethyl]carbamoyl}-4-[(3R,4S)-3,4-diazaniumylpyrrolidin-1-yl]-4-oxobutan-1-aminium]quinolin-1-ium tetrachloride] | –
